This is an account of results in patent US20250186403A1 (ARIZONA BOARD OF REGENTS ON BEHALF OF THE UNIVERSITY OF …, priority 2022, published 2025).

Molecules are shown by their SMILES.

One assay relates to Cne-WT and Cne-Mut. Kind of assay: Resazurin-based HTS growth assay, dose-response IC50. It is filed as cell-based, Cryptococcus neoformans. To be noted: 24 h. As to the method: HTS assay: A resazurin-based growth assay was developed for primary screening, employing two strains of Cne, the Cne-WT with natural intein and Cne-Mut, the mutant strain without intein. The assay was first standardized in 96 well formats and later optimized for 384 well plates. The HTS was done at ICCB-Longwood screening facility, Harvard University, Boston, USA. For HTS, the fungal cells were grown in SD broth overnight and diluted in SD broth to an optical density (OD) 0.5 at 600 nm. The cell suspension is further diluted 1:10 in RPMI 1640 media with 0.165 M MOPS, 2% glucose (RPMI-MOPS) so that the final OD will be 0.05. […] The conversion of resazurin to resorufin by live cells were estimated by reading fluorescence at Ex 550 nm and Em 590 nm using a plate reader (EnVision, Perkin Elmer). Additionally, the absorbance was also read at 600 nm using the plate reader (EnVision, Perkin Elmer). […] The ratio of fluorescence reading in Cne-WT and Cne-Mut was used to advance positive compounds.
Concentration series (0.02 to 50 µM) of test compounds and equalizing volume of DMSO were dispensed using a liquid handler (D300 e, Hewlett Packard) to the 384 well plates. Following the addition of Cne cell suspension, the assay plates were incubated for 24 h, and fluorescence readings of resorufin were taken as explained for single concentration screening.

Assay [1] deals with Cga split-cfGFP-Prp8 intein protein. Kind of assay: Split GFP-Prp8 intein splicing assay (SDS-PAGE). In kind it is biochemical, Cryptococcus gattii. To be noted: vs DMSO control, 30 μM protein, 24 h. The protocol: TCEP is added to a final concentration of 100 µM and incubated for 24 h. The substrate Nano-Glo luciferase (Promega) was added, and the resulting luminescence was read. IC50 was calculated using GraphPad prism. […] TCEP was added to a concentration of 1 mM and incubated for 24 h. From this reaction mixture, 10 μl was mixed with an equal volume of 2×SDA-PAGE loading dye and loaded onto 12% SDS-PAGE gel without boiling the sample. The gel was scanned with UV using Chemidoc (Bio Rad), and band intensities were quantified using Image Lab software. […] Cells were harvested and washed in PBS, lysed with bead lyser, and centrifuged at 10,000 rpm. An equal quantity of protein (50 μg) from each treatment was loaded onto 12% SDS-PAGE and blotted onto the NC membrane, blocked with 5% skimmed milk. The membrane was probed with anti-prp8 intein rabbit polyclonal sera, followed by goat anti-rabbit HRP antibody. Signals were developed using a chemiluminescent kit. The density of the spliced intein bands (˜20 kDa) were quantified using Image lab software. A band at ˜130 kDa is uncharacterized, as explained below. NC: nitrocellulose. Abs: absorbance […]
TCEP to a final concentration of 1 mM was added to induce splicing and further incubated at RT for 24 h. […] The band densities were quantified using image lab software.

Assay [2] deals with recombinant Cne-Prp8 intein. Kind of assay: Thermal shift assay. It is filed as binding, Cryptococcus neoformans. As to the method:
The Tm values were calculated by Thermal shift software. […] The assay was repeated three times. […]
Each treatment was done in quadruplicate. The mixture was incubated at room temperature for an hour before transferring to the QuantStudio 5 real-time PCR system (Applied Biosystems) and run with an increasing temperature from 20° C. to 90° C. The temperature at which there was 50% of the peak fluorescence (50% denaturation) was considered as Tm. The analysis was done using the Thermal Shift Assay software (Thermo Fischer Scientific). A graph was drawn using the GraphPad prism Version 9.1.0 after normalizing the fluorescent values. The treatment groups were compared with Student's t-test.

Regarding `CNc1ccc2oc(C[C@H]3O[C@@]4(CC[C@H]3C)O[C@H]([C@H](C)C(=O)c3ccc[nH]3)[C@H](C)C[C@H]4C)nc2c1C(=O)O` [CMN, calcimycin], in the assay with Cne-WT and Cne-Mut, the “difference in IC50 (Cne-Mut vs Cne-WT)” value was 2.5 fold. Besides, the “splicing of split GFP-Prp8 intein” value in assay [1] is given as “inhibited with CMN dose-dependently”. Also, in assay [2] (1.2 µM CMN), the “ΔTm difference between CMN and DMSO” value came to 3 °C. Besides, the “Tm of CnePrp8 intein” value in assay [2] (with 1.2 µM CMN (DMSO control 50.8±0.2)) is 53.8±0.2 °C.
